In assay [1] the test system is Serratia marcescens expressing IMP-1 (CL5741). Description: Antibiotic potentiation activity: synergistic concentration (MITC95) with imipenem, growth by OD600. It is filed as cell-based. The settings on record: S. marcescens CL5741 (IMP-1), 95% inhibition of growth. In a few lines: (§1)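 Strains grown overnight at 35° C, resuspended in saline, diluted 1:100 into 1.1×CAMHB; imipenem at 1 μg/ml or 4 μg/ml with test compound 200 μM to 0.195 μM. Incubated 22 hours to 24 hours at 35° C, OD600 read; MITC95 is lowest compound concentration inhibiting 95% of growth.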

The test system of assay [2] is Escherichia coli expressing NDM-1 (CLB30016). The assay is described as above. The assay is classed as cell-based. As to conditions: E. coli CLB30016 (NDM-1), 95% inhibition of growth. Summed up: as §1
The subject of assay [3] is Klebsiella pneumoniae expressing VIM-1 (IHMA599644). Described as above. The assay is classed as cell-based. As to conditions: K. pneumoniae IHMA599644 (VIM-1), 95% inhibition of growth. Summed up:
as §1

For the next assay, the target named is IMP-1 (Serratia marcescens, UniProt P52699). Put plainly: Enzyme activity: determination of IC50, fluorescence assay with CCF2-FA substrate. It is filed as biochemical. The settings on record: IMP-1 enzyme 2 pM, CCF2-FA 1.25 μM, 2 hours at 25° C.; read-out: IMP1 IC50. In a few lines:
(§2)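 Enzyme (1 pM NDM-1, 2 pM IMP-1, 30 pM VIM-1) incubated with inhibitor (20 to 0.00063 μM) and 1.25 μM CCF2-FA in 100 mM KH2PO4 pH 7, 0.005% Tween-20, 10 μM ZnSO4, 2 h at 25 °C. Fluorescence read at 460 nm (ex 405 nm); IC50 by 4-parameter fit.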

Another assay concerns the target VIM-1 (Pseudomonas aeruginosa, UniProt A0A0F7KYQ8). The description is as above. It is filed as biochemical. The settings on record: VIM-1 enzyme 30 pM, CCF2-FA 1.25 μM, 2 hours at 25° C.; read-out: VIM1 IC50. Summed up:
as §2

The next assay concerns the target NDM-1 (Klebsiella pneumoniae, UniProt C7C422). The assay is described as above. The assay is classed as biochemical. The settings on record: NDM-1 enzyme 1 pM, CCF2-FA 1.25 μM, 2 hours at 25° C.; read-out: NDM1 IC50. In a few lines: as §2

SMILES strings stand for the structures.

What is called IC50 is the concentration that gives 50% inhibition.

IMP-1, sequence (P52699 19-246, looked up, species assumed): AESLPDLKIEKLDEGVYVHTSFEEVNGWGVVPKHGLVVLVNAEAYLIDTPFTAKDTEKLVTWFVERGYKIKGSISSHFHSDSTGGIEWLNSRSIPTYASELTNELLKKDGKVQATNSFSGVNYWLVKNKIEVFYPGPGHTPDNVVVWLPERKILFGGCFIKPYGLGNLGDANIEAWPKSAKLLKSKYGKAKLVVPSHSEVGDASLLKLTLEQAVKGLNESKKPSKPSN
NDM-1, sequence (C7C422 29-270, looked up, species assumed): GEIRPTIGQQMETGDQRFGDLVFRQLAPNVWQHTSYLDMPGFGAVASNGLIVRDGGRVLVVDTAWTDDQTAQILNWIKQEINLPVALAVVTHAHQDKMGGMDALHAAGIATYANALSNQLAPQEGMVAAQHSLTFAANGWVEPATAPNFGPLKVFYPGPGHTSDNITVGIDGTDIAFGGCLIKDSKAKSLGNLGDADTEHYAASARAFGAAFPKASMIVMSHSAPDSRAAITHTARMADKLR

As for `CCC[C@H](C(=O)O)[C@H](Cc1cccc(-c2cccc(C3CCCNC3)c2)c1)c1nn[nH]n1` (stereo partly drawn) [Example 345, (2S)-2-[(1S)-2-(3′-piperidin-3-ylbiphenyl-3-yl)-1-(2H-tetrazol-5-yl)ethyl]pentanoic acid], the “IMP1 SM5741 MITC95” value in assay [1] turned out to be 6.2 µM. The “NDM1 EC30016 MITC95” value in assay [2] came to 25 µM. Also, in assay [3], the “VIM1 KP599644 MITC95” value came out at 18.8 µM. Further, the IC50 on IMP-1 turned out to be 270 nM; at VIM-1, 1.7 nM; at NDM-1 it was 39 nM.
Take `CCC[C@H](C(=O)O)[C@H](Cc1cccc(-c2ccc(N3CCOCC3)nc2)c1)c1nn[nH]n1` [Example 346, (2S)-2-[(1S)-2-[3-(6-morpholin-4-ylpyridin-3-yl)phenyl]-1-(2H-tetrazol-5-yl)ethyl]pentanoic acid]: in assay [1], the “IMP1 SM5741 MITC95” value is 6.2 µM. In addition, the “NDM1 EC30016 MITC95” value in assay [2] was 75 µM. In assay [3], the “VIM1 KP599644 MITC95” value came out at 38 µM. In addition, the IC50 came to 320 nM at IMP-1, 2.2 nM on VIM-1 and 21 nM at NDM-1.
With `CCC[C@H](C(=O)O)[C@H](Cc1cccc(-c2cncc(CN3CCCCC3)c2)c1)c1nn[nH]n1` [Example 347, (2S)-2-[(1S)-2-{3-[5-(piperidin-1-ylmethyl)pyridin-3-yl]phenyl}-1-(2H-tetrazol-5-yl)ethyl]pentanoic acid], in assay [1], the “IMP1 SM5741 MITC95” value came to 25 µM. Moreover, the “NDM1 EC30016 MITC95” value in assay [2] came to 50 µM. Also, the “VIM1 KP599644 MITC95” value in assay [3] is 25 µM. Further, the values for the IC50 on IMP-1, at VIM-1 and on NDM-1 were 1600 nM, 6.5 nM and 160 nM, respectively.
For the compound `CCC[C@H](C(=O)O)[C@H](Cc1cccc(-c2cccc(OC3CCNCC3)n2)c1)c1nn[nH]n1` [Example 348, (2S)-2-[(1S)-2-{3-[6-(piperidin-4-yloxy)pyridin-2-yl]phenyl}-1-(2H-tetrazol-5-yl)ethyl]pentanoic acid], the “IMP1 SM5741 MITC95” value in assay [1] came out at 6.2 µM. In addition, the “NDM1 EC30016 MITC95” value in assay [2] was found to be 18.8 µM. For the same compound, the “VIM1 KP599644 MITC95” value in assay [3] amounted to 18.8 µM. Also, the results for the IC50 on IMP-1, on VIM-1 and on NDM-1 were 540 nM, 2.2 nM and 22 nM, respectively.
Turning to `CCC[C@H](C(=O)O)[C@H](Cc1cccc(-c2ccnc(N)c2)c1)c1nn[nH]n1` [Example 349, (2S)-2-[(1S)-2-[3-(2-aminopyridin-4-yl)phenyl]-1-(2H-tetrazol-5-yl)ethyl]pentanoic acid], the “IMP1 SM5741 MITC95” value in assay [1] stood at 3.9 µM. Besides, the “NDM1 EC30016 MITC95” value in assay [2] was found to be 9.4 µM. Besides, the “VIM1 KP599644 MITC95” value in assay [3] was 12.5 µM. For the same compound, the results for the IC50 on IMP-1, at VIM-1 and on NDM-1 were 140 nM, 1.3 nM and 11 nM, respectively.
Consider `CCC[C@H](C(=O)O)[C@H](Cc1cccc(-c2ccc(C3CCNCC3)cc2)c1)c1nn[nH]n1` [Example 350, (2S)-2-[(1S)-2-(4′-piperidin-4-ylbiphenyl-3-yl)-1-(2H-tetrazol-5-yl)ethyl]pentanoic acid], for which the “IMP1 SM5741 MITC95” value in assay [1] worked out at 6.2 µM. The “NDM1 EC30016 MITC95” value in assay [2] is 25 µM. Besides, the “VIM1 KP599644 MITC95” value in assay [3] came out at 25 µM. Besides, the concentration for half-maximal inhibition (IC50) on IMP-1 was 380 nM; on VIM-1 it was 3 nM; at NDM-1 it was 26 nM.
For `CCC[C@H](C(=O)O)[C@H](Cc1cccc(-c2ccc(C(N)=O)cc2)c1)c1nn[nH]n1` [Example 351, (2S)-2-[(1)-2-(4′-carbamoylbiphenyl-3-yl)-1-(2H-tetrazol-5-yl)ethyl]pentanoic acid], the “IMP1 SM5741 MITC95” value in assay [1] was determined as 0.59 µM. Further, the “NDM1 EC30016 MITC95” value in assay [2] was found to be 7.8 µM. The “VIM1 KP599644 MITC95” value in assay [3] came to 25 µM. For the same compound, the IC50 on IMP-1 was determined as 24 nM; on VIM-1, 1.6 nM; on NDM-1, 0.78 nM.
On to `CCC[C@H](C(=O)O)[C@H](Cc1cccc(-c2cncc3ccccc23)c1)c1nn[nH]n1` [Example 352, (2S)-2-[(1S)-2-(3-isoquinolin-4-ylphenyl)-1-(2H-tetrazol-5-yl)ethyl]pentanoic acid], for which the “IMP1 SM5741 MITC95” value in assay [1] is 0.39 µM. Moreover, the “NDM1 EC30016 MITC95” value in assay [2] came out at 18.8 µM. In assay [3], the “VIM1 KP599644 MITC95” value is 50 µM. Moreover, the IC50 stood at 7.8 nM on IMP-1, 1.7 nM at VIM-1 and 1.7 nM on NDM-1.
As to `CCC[C@H](C(=O)O)[C@H](Cc1cccc(-c2ccncc2)c1)c1nn[nH]n1` [Example 353, (2S)-2-[(1S)-2-(3-pyridin-4-ylphenyl)-1-(2H-tetrazol-5-yl)ethyl]pentanoic acid], the “IMP1 SM5741 MITC95” value in assay [1] turned out to be 6.2 µM. The “NDM1 EC30016 MITC95” value in assay [2] was found to be 38 µM. The “VIM1 KP599644 MITC95” value in assay [3] came out at 100 µM. Further, the IC50 on IMP-1 worked out at 160 nM; on VIM-1 it was 2.3 nM; at NDM-1 it was 13 nM.
For the compound `CCC[C@H](C(=O)O)[C@H](Cc1cccc(-c2ccc3c(c2)CCC(N)C3)c1)c1nn[nH]n1` (stereo partly drawn) [Example 354, (2S)-2-[(1S)-2-[3-(6-amino-5,6,7,8-tetrahydronaphthalen-2-yl)phenyl]-1-(2H-tetrazol-5-yl)ethyl]pentanoic acid], the “IMP1 SM5741 MITC95” value in assay [1] stood at 4.7 µM. For the same compound, the “NDM1 EC30016 MITC95” value in assay [2] was 9.4 µM. Moreover, the “VIM1 KP599644 MITC95” value in assay [3] came out at 9.4 µM. For the same compound, the IC50 on IMP-1 was 310 nM; on VIM-1 it was 1.4 nM; at NDM-1, 13 nM.
As to `CCC[C@H](C(=O)O)[C@H](Cc1cccc(-c2ccc(N3CCNCC3)nc2)c1)c1nn[nH]n1` [Example 355, (2S)-2-[(1S)-2-[3-(6-piperazin-1-ylpyridin-3-yl)phenyl]-1-(2H-tetrazol-5-yl)ethyl]pentanoic acid], the “IMP1 SM5741 MITC95” value in assay [1] was 9.4 µM. The “NDM1 EC30016 MITC95” value in assay [2] is 12.5 µM. Also, the “VIM1 KP599644 MITC95” value in assay [3] came to 18.8 µM. The IC50 at IMP-1 stood at 550 nM; at VIM-1 it was 2.8 nM; on NDM-1 it was 21 nM.
For `CCC[C@H](C(=O)O)[C@H](Cc1cccc(-c2cnc(N)c(F)c2)c1)c1nn[nH]n1` [Example 356, (2S)-2-[(1S)-2-[3-(6-amino-5-fluoropyridin-3-yl)phenyl]-1-(2H-tetrazol-5-yl)ethyl]pentanoic acid], in assay [1], the “IMP1 SM5741 MITC95” value is 4.7 µM. Moreover, in assay [2], the “NDM1 EC30016 MITC95” value came out at 25 µM. Also, the “VIM1 KP599644 MITC95” value in assay [3] came out at 18.8 µM. Besides, the IC50 is 170 nM on IMP-1, 1.5 nM at VIM-1 and 6.2 nM at NDM-1.
On to `CCC[C@H](C(=O)O)[C@H](Cc1cccc(-c2ccccc2CN2CCCCC2)c1)c1nn[nH]n1` [Example 357, (2S)-2-[(1S)-2-[2′-(piperidin-1-ylmethyl)biphenyl-3-yl]-1-(2H-tetrazol-5-yl)ethyl]pentanoic acid], for which the “IMP1 SM5741 MITC95” value in assay [1] was 38 µM. In addition, the “NDM1 EC30016 MITC95” value in assay [2] amounted to 150 µM. In addition, the “VIM1 KP599644 MITC95” value in assay [3] worked out at 150 µM. The IC50 on IMP-1 turned out to be 2100 nM; on VIM-1, 63 nM; at NDM-1, 170 nM.
With `CCC[C@H](C(=O)O)[C@H](Cc1cccc(-c2cccc(CN3CCCCC3)c2)c1)c1nn[nH]n1` [Example 358, (2S)-2-[(1S)-2-[3′-(piperidin-1-ylmethyl)biphenyl-3-yl]-1-(2H-tetrazol-5-yl)ethyl]pentanoic acid], the “IMP1 SM5741 MITC95” value in assay [1] stood at 12.5 µM. For the same compound, in assay [2], the “NDM1 EC30016 MITC95” value is 38 µM. The “VIM1 KP599644 MITC95” value in assay [3] came to 62 µM. Besides, the IC50 amounted to 1000 nM at IMP-1, 6.2 nM at VIM-1 and 47 nM on NDM-1.
